# In patent US20040157867A1, “Pyrimidine phosphorylase as a target for imaging and therapy” (priority 2004, published 2004):
# Read-outs that look alike come from different tables or passages of the source.
# What was measured:
# [1] = tested on: U-937 cells; experiment: Enhancement of BrUra trapping into DNA by dR-1-P prodrugs; type: cell-based, human; settings: 24 hours, 20 μM BrUra and 20 μM deoxyribonucleoside
# Method: The effect of dR-1-P prodrugs was examined in U-937 cells. Cells were incubated for 24 hours with 20 μM BrUra and 20 μM of six different deoxyribonucleosides. The use of prodrugs for dR-1-P is described as a way of driving the reaction catalyzed by TPase in the direction of thymidine production. As illustrated in the bar chart, in FIG. 3, the maximum enhancement of BrUra trapping in DNA was 24-fold, for dUrd. An increase of 6-fold was found for dIno.
# [2] = tested on: U-937 cells implanted subcutaneously in nude mice; experiment: Incorporation of [3H]-BrUra into tumor DNA in vivo, modulation with eniluracil; settings: eniluracil 2 mg/kg i.p. thirty minutes prior to i.v. [3H]-BrUra, 24 hours
# Method: U-937 cells (ATCC; Manassas, Va.) were implanted subcutaneously in nude mice. When tumors grew to about 0.5 gram, [^3H]-BrUra was injected i.v. One set of mice received eniluracil, 2 mg/kg, injected i.p. thirty minutes prior to i.v. [3H]-BrUra, and the other set received no treatment prior to [^3H]-BrUra i.v. Both sets of mice were killed 24 hours later, and tumors and blood removed. DNA from tumors was extracted and analyzed using our established techniques (Klecker et al., 1994). [^3H]-BrdUrd was found in DNA in tumors by radiochromatography, indicating conversion of [^3H]-BrUra in vivo, similar to our results for cell culture.
# [3] = cited from earlier work
# [4] = tested on: Dunning rat prostatic tumors; experiment: 5-X-Ura incorporation into tumor DNA in vivo; settings: BrUra intravenously, tumors harvested 105 minutes after injection
# Method: Dunning rat prostatic tumors were implanted (250,000 cells) subcutaneously in 3 rats. Two weeks post-implantation, the tumors had reached 7-20 g in size and the rats weighed about 250 g. At 2 weeks post-implantation, TPase was measured. BrUra was prepared in an aqueous solution, adjusted to pH 9 (the same formulation used clinically for its analog, FUra), and injected intravenously via a tail vein. The rats were sacrificed 105 minutes after the injection, and the tumors were harvested. DNA from the tumor was isolated, digested, and the nucleosides analyzed by HPLC (Klecker, 1994). BrdUrd was found in the DNA of the tumors, replacing 0.15% of the dThd bases.
# [5] = tested on: Raji; experiment: Growth inhibition of Raji tumor cells by BrUra; type: cell-based, human; settings: 72 hr
# Method: (§1) The five human-derived tumor cell lines shown below were incubated with BrUra at concentrations from 0.5 to 4.5 mM for 72 hours. (Cell lines are available at the ATCC, Manassas, Va.) Separate incubations were conducted in the presence or absence of 50 μM dUrd. Growth inhibition was determined as a percentage of control values for cells incubated without BrUra or dUrd. Consistent with the experiments described in Example 8, co-incubation with dUrd increased cytotoxicity of BrUra in all groups. As expected from their high level of TPase expression, U937 were the only cells with notable toxicity at 0.5 mM, and also the greatest toxicity at 1.5 and 4.5 mM. CEM, MOLT4, and K562 were substantially less affected by incubation with BrUra, consistent with a low intracellular activation rate because of low TPase expression.
# (§2) % Growth Inhibition, Based Upon Control Doubling Time=24 Hr. BrUra Concentrations Ranged from 0.5 to 4.5 mM. Incubations were Conducted for 72 Hr in the Presence or Absence of 50 μM ddUrd.
# [6] = tested on: CEM; experiment: Growth inhibition of CEM tumor cells by BrUra; type: cell-based, human; settings: 72 hr
# Method: as §1, §2
# [7] = tested on: MOLT4; experiment: Growth inhibition of MOLT4 tumor cells by BrUra; type: cell-based, human; settings: 72 hr
# Method: as §1, §2
# [8] = tested on: K562; experiment: Growth inhibition of K562 tumor cells by BrUra; type: cell-based, human; settings: 72 hr
# Method: as §1, §2
# [9] = molecular target: T1, TPase (Homo sapiens, UniProt P19971); experiment: TPase inhibition in tumor cells co-incubated with human liver cytosol ([3H]-dThd incorporation into DNA); type: cell-based; settings: BrUra 500 μM, U-937 or MOLT-4 cells with human liver cytosol (S100), 5-35% without BrUra
# T1 sequence (P19971 11-482): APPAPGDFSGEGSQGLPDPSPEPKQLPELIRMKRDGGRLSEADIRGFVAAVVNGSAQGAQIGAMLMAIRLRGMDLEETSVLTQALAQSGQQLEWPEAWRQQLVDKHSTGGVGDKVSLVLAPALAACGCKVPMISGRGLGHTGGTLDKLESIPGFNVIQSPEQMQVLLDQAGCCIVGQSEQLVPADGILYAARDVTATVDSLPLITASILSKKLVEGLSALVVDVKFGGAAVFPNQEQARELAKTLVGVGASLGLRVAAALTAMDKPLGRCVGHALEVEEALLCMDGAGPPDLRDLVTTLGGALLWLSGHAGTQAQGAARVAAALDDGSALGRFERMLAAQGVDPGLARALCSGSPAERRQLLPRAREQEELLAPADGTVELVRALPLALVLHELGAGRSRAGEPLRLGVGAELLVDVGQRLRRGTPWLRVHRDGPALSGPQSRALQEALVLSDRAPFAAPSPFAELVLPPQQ
# Method: [^3H]-dThd (0.02 μM) or [^3H]-dUrd (0.1 μM) was incubated with either U-937 or MOLT-4 tumor cells, and incorporation of [[…] into DNA was measured after 3 hours. Cytosol (S100) was prepared from human liver by differential centrifugation. This cytosol, which contains TPase, was co-incubated with U-937 or MOLT4 tumor cells to simulate the degradation of pyrimidine nucleosides in the body. Incorporation of [^3H]-dThd into DNA was decreased to 5-35% of baseline levels. When BrUra (500 μM) was also added to the incubation mixture, TPase inhibition was observed as increased incorporation of [^3H]-dThd in DNA, back to 39-89% of baseline levels.
# [10] = tested on: U937; experiment: Growth inhibition of U937 tumor cells by BrUra; type: cell-based, human; settings: 72 hr
# Method: as §1, §2
# [11] = molecular target: T1, TPase; experiment: TPase inhibition in intact human hepatocytes ([3H]-Ura formation from [3H]-dUrd); type: cell-based; parameters: Cryopreserved human hepatocytes were procured from In Vitro Technologies, Inc; host or cells: cryopreserved human hepatocytes; settings: [3H]-dUrd 0.2 μM, one hour
# Method: Cryopreserved human hepatocytes were procured from In Vitro Technologies, Inc. (Catonsville, Md.) and processed according to the supplier's instructions. TPase activity was monitored for one hour by measuring formation of [^3H]-Ura from [^3H]-dUrd, 0.2 μM. Co-incubation of tritiated dUrd with 100 μM BrUra inhibited TPase by 48%, and 500 μM of BrUra inhibited TPase by 85%.
smiles,measurement,setting,value
O=c1ccn([C@H]2C[C@H](O)[C@@H](CO)O2)c(=O)[nH]1 [dUrd],enhancement of BrUra trapping in DNA,[1],24 fold
C#Cc1c[nH]c(=O)[nH]c1=O [eniluracil],increase of incorporation of radioactivity into DNA from [3H]-BrUra,[2],five-fold
"O=c1[nH]cc(F)c(=O)[nH]1 [5-FUra, 5-fluorouracil]",increase in 5-FUra exposure,[3]; presence versus absence of eniluracil,50- to 100 fold
same,Plasma clearance of 5-FUra,[3]; with eniluracil,0.1 L/min
same,recovered unchanged in the urine,[3]; with eniluracil,77%
same,tolerated dose upon continuous dosing,[3]; with eniluracil,2 mg/day per square meter of body surface
same,Plasma clearance of 5-FUra,[3]; without eniluracil,5.0 L/min
same,recovered unchanged in the urine,[3]; without eniluracil,less than 10%
"O=c1[nH]cc(Br)c(=O)[nH]1 [BrUra, bromouracil]","BrdUrd found in DNA of the tumors, replacing dThd bases",[4],0.15%
same,% Growth Inhibition,"[5]; BrUra 0.5 mM, with 50 μM dUrd",9%
same,% Growth Inhibition,"[5]; BrUra 0.5 mM, without dUrd",2%
same,% Growth Inhibition,"[5]; BrUra 1.5 mM, with 50 μM dUrd",24%
same,% Growth Inhibition,"[5]; BrUra 1.5 mM, without dUrd",27%
same,% Growth Inhibition,"[5]; BrUra 4.5 mM, with 50 μM dUrd",67%
same,% Growth Inhibition,"[5]; BrUra 4.5 mM, without dUrd",65%
same,% Growth Inhibition,"[6]; BrUra 0.5 mM, with 50 μM dUrd",13%
same,% Growth Inhibition,"[6]; BrUra 0.5 mM, without dUrd",6%
same,% Growth Inhibition,"[6]; BrUra 1.5 mM, with 50 μM dUrd",65%
same,% Growth Inhibition,"[6]; BrUra 1.5 mM, without dUrd",23%
same,% Growth Inhibition,"[6]; BrUra 4.5 mM, with 50 μM dUrd",95%
same,% Growth Inhibition,"[6]; BrUra 4.5 mM, without dUrd",89%
same,% Growth Inhibition,"[7]; MOLT4, BrUra 0.5 mM, with 50 μM dUrd",8%
same,% Growth Inhibition,"[7]; MOLT4, BrUra 0.5 mM, without dUrd",6%
same,% Growth Inhibition,"[7]; MOLT4, BrUra 1.5 mM, with 50 μM dUrd",25%
same,% Growth Inhibition,"[7]; MOLT4, BrUra 1.5 mM, without dUrd",26%
same,% Growth Inhibition,"[7]; MOLT4, BrUra 4.5 mM, with 50 μM dUrd",85%
same,% Growth Inhibition,"[7]; MOLT4, BrUra 4.5 mM, without dUrd",66%
same,% Growth Inhibition,"[8]; K562, BrUra 0.5 mM, with 50 μM dUrd",−6%
same,% Growth Inhibition,"[8]; K562, BrUra 0.5 mM, without dUrd",−7%
same,% Growth Inhibition,"[8]; K562, BrUra 1.5 mM, with 50 μM dUrd",28%
same,% Growth Inhibition,"[8]; K562, BrUra 1.5 mM, without dUrd",13%
same,% Growth Inhibition,"[8]; K562, BrUra 4.5 mM, with 50 μM dUrd",77%
same,% Growth Inhibition,"[8]; K562, BrUra 4.5 mM, without dUrd",57%
same,"incorporation of [3H]-dThd in DNA, of baseline levels",[9],39-89%
same,% Growth Inhibition,"[10]; U937, BrUra 0.5 mM, with 50 μM dUrd",28%
same,% Growth Inhibition,"[10]; U937, BrUra 0.5 mM, without dUrd",16%
same,% Growth Inhibition,"[10]; U937, BrUra 1.5 mM, with 50 μM dUrd",77%
same,% Growth Inhibition,"[10]; U937, BrUra 1.5 mM, without dUrd",47%
same,% Growth Inhibition,"[10]; U937, BrUra 4.5 mM, with 50 μM dUrd",100%
same,% Growth Inhibition,"[10]; U937, BrUra 4.5 mM, without dUrd",100%
same,TPase inhibition,[11]; 100 μM BrUra,48%
same,TPase inhibition,[11]; 500 μM BrUra,85%
"OC[C@H]1O[C@@H](n2cnc3c(O)ncnc32)C[C@@H]1O [dIno, deoxyinosine]",enhancement of BrUra trapping in DNA,[1],6 fold
